Measured values reported in US20210333284A1, “METHODS AND MATERIALS FOR LARGE-SCALE ASSESSMENT OF LIGAND BINDING SELECTIVITY OF G-QUADRUPLEX RECOGNITION USING CUSTOM G4 MICROARRAYS” (Purdue Research Foundation, priority 2020, published 2021).

Legend:
[1] = test system: parallel-stranded MYC_14/23T, MYC1234 and VEGF G4s; assay: 1D 1H NMR titration with parallel G4s; assay type: binding, human
Description: The binding selectivity of BMVC to G4 structures and flanking sequences was confirmed by NMR titration experiments of BMVC to different G4 sequences, including parallel-stranded MYC_14/23T G4 and its 5′- and 3′-flanking variants, VEGF and MYC1234 G4s, basket-type human telomeric G4 (wtTel22 in Na+), and hybrid type human telomeric G4 (Tel26 in K+) (FIG. 12). BMVC binds best to the MYC_14/23T G4, as indicated by well-resolved imino proton peaks for BMVC complexes (FIG. 12, panel a). […] In contrast, the 3′-end binding of BMVC is sensitive to the mutations at the 3′-flanking sequence, with a clear preference for the 3′-flanking T. In addition, BMVC prefers at least two flanking bases for a specific binding.
G4 DNA oligonucleotides were synthesized using β-cyanoethylphosphoramidite solid-phase chemistry (Applied Biosystem Expedite 8909), as described previously. NMR experiments were performed on a Bruker AV-III-500-HD equipped with a BBFO Z-gradient cryoprobe. DNA samples were heated to 95° C. for 5 min, then cooled slowly for G4 formation. For the 1D 1H NMR experiments, samples contained 100-250 μM DNA in an appropriate buffer solution with 10% D2O for the lock. The titrations were performed by adding increasing amounts of the compounds to the DNA samples in solution.

[2] = test system: MYC G4 flanking variants 5′-NNGGGTGGGGAGGGTGGGNN-3′; assay: G4 microarray competition with Cy5-PDS, flanking (tail) variants; design: species or system human; conditions: from reduction of Cy5-PDS binding in the presence of competitor
Description: Whether the microarray platform could be used to reveal the G4-binding specificity of unlabeled molecules via a competition with Cy5-PDS binding was explored. Three example molecules, unlabeled PDS, TMPyP4 (a planar molecule that nonspecifically binds G4 structures^14), and DC-34 (a molecule that selectively binds the MYC G4^15) were examined. […] The binding of unlabeled DC-34 was examined (FIG. 4). There appear to be no features that are better-bound in the presence of DC-34. […] This is consistent with the observation that DC-34 binds the top and bottom surfaces of the G4 and makes specific contacts with purines in the tail sequences.^15 The general properties of features in which DC-34 reduced binding of Cy5-PDS (ratio of PDS/PDS+DC-34) were also examined. […]
DNA Microarray Binding Experiments DNA microarray experiments were performed and analyzed as described previously. […]
Data Processing and Analysis Molecule-bound microarrays were scanned with an Agilent G5761A SureScan Dx Microarray Scanner System to detect Cy5 signal at two laser settings (30 and 100 PMT). Spot intensities from microarray images were extracted using Agilent Feature Extraction Software and are reported as raw fluorescence intensities. […]

[3] = test system: human telomeric G4s; assay: G4 microarray competition with Cy5-PDS, telomeric G4s; assay type: binding; conditions: 1 μM BMVC and 1 μM Cy5-PDS
Description: Custom G4 microarrays have been designed that contain a total of 19,249 G4 DNA sequences [31, the entirety of disclosure of which, including the supplemental information, is incorporated herein by reference]. The G4 microarrays were created by covalently attaching thousands of unique G4-forming DNA 60-mers to a glass surface. Pyridostatin (PDS) is a known G4-interactive compound. […] To test the binding selectivity of BMVC, competition experiments using custom G4 microarrays were performed. The addition of potassium-containing solution to G4-forming oligonucleotides induced G4 formation. […] After washing to remove the unbound Cy5-PDS and BMVC, the fluorescence intensities of Cy5-PDS bound to DNA oligonucleotides were detected using a fluorescence scanner. The binding selectivity of BMVC to different G4 structures was assessed by measuring the relative fluorescence intensity reduction of Cy5-PDS as BMVC concentration increased.
To determine the G4-binding selectivity of BMVC, the BMVC binding to known G4 structures was examined, including 7 well-studied MYC promoter G4 sequences, 15 other oncogene promoter G4 sequences, and 3 human telomeric G4 sequences (TABLE 4). BMVC competes with the binding of Cy5-PDS to most G4 sequences in a dose-dependent manner as indicated by reduced fluorescence intensities (FIG. 8a). […]

**Q.** For C[n+]1ccc(/C=C/c2ccc3[nH]c4ccc(/C=C/c5cc[n+](C)cc5)cc4c3c2)cc1.[I-].[I-] [BMVC, 3,6-Bis(1-methyl-4-vinylpyridinium) carbazole diiodide], which “binding to MYC1234 and VEGF G4 by NMR titration” value ([1]; other parallel G4s) is on record?
**A.** bind well

**Q.** And the “binding to MYC_14/23T G4 by NMR titration” value ([1]; well-resolved imino proton peaks, 95 mM K+, pH 7, 25° C.)?
**A.** binds best

**Q.** And the “flanking sequence preference of competitor” value [2]?
**A.** strongly prefers the MYC G4 with the 3′-flanking T

**Q.** What about the “inhibition of Cy5-PDS binding to human telomeric G4s” value [3] of the same compound?
**A.** significantly inhibited
